Tests used:
[1] = tested on: ANGPTL4, a PPARG target gene, in HT1197 (RXRA S427F mutation) cells; assay: Bladder cancer pharmacodynamic assay, HT1197 cell assay (qPCR of PPARG target gene ANGPTL4); type: cell-based; details: Homo sapiens, read-out: % inhibition of ANGPTL4 @ 100 nM, 100 nM compound, 24 hours, relative to DMSO control
Description: Quantitative PCR was performed using an ABI QuantStudio 7 Flex Reaction system. Data were analyzed and reported relative to DMSO control using the comparative Ct method (ΔΔCt).

[2] = target: T1, PPARG/RXRA LBD heterodimer (Homo sapiens, UniProt P37231); assay: PPARγ-NCOR1 recruitment assay (TR-FRET); type: biochemical; details: for Emax: 3 h, maximal extent, T0070907 defined as 100%, DMSO 0%, read-out: % NCOR recruitment relative to T907; for EC50: TR-FRET, NCOR1 ID2 peptide, 80 nM Rosiglitazone, 3 hours, read-out: PPARG-NCOR recruitment assay EC50
T1 construct: 2 nM WT PPARG LBD (E. coli expressed, His-TEV-Q203-Y477); fused on or other part: N-terminal His tag with TEV site on the PPARG LBD
Description: Compound potency (EC50) and maximal extent of NCOR1 recruitment to PPARG were assessed a TR-FRET binding assay measuring association of a biotinylated NCOR1 ID2 peptide (Biotin-[…]-amide) to PPARG/RXRA LBD heterodimer.
T1 sequence (O75376 2251-2273 limits assumed, one chain of several, further chain): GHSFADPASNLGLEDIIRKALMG

[3] = target: T2, PPARG/RXRA LBD heterodimer (Homo sapiens, UniProt P37231); assay: PPARγ-MED1 blockade assay (TR-FRET); type: biochemical; details: for EC50: TR-FRET, MED1 LxxLL peptide, 80 nM Rosiglitazone, 3 hours; for Emax: maximal extent, GW9662 defined as 100%, DMSO 0%, read-out: % MED1 blockade relative to GW9662
T2 construct: His-TEV-Q203-Y477; Uniprot ID P37231-2; made in house; host or cells: E. coli
T2 sequence (P37231 203-477 isoform P37231-2): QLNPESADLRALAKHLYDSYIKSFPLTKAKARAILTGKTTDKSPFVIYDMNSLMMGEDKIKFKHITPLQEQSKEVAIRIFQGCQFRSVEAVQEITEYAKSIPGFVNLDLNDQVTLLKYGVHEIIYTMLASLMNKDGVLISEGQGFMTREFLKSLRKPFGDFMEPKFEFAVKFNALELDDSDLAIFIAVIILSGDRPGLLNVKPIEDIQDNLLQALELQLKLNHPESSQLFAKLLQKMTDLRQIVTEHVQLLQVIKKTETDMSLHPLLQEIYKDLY
T2 sequence (P19793 228-462 partner limits assumed): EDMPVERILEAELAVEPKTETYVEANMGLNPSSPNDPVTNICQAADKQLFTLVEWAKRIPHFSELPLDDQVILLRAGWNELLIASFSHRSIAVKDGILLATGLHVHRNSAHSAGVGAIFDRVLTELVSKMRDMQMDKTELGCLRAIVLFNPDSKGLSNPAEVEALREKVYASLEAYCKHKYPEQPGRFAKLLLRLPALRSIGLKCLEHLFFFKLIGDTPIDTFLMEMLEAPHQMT
Description: Compound potency (IC50) and maximal extent of MED1 repulsion to PPARG were assessed a TR-FRET binding assay measuring association of a biotinylated MED1 LxxLL peptide (Biotin-[…]-amide) to PPARG/RXRA LBD heterodimer.

Compound	inhibition at 0.1 µM [1] [%]	Emax [2] [%]	EC50 [2] [nM]	EC50 [3] [nM]	Emax [3] [%]
CN(C)C(=O)[C@@H]1CCCN(c2c(F)cc3[nH]c(-c4cc(C#N)ncc4Cl)cc(=O)c3c2F)C1 [Example 22, (R)-1-(2-(5-chloro-2-cyanopyridin-4-yl)-5,7-difluoro-4-oxo-1,4-dihydroquinolin-6-yl)-N,N-dimethylpiperidine-3-carboxamide]	91	> 100	< 10	10 to 100	> 100
CN(C)C(=O)[C@H]1CCCN(c2c(F)cc3[nH]c(-c4cc(C#N)ncc4Cl)cc(=O)c3c2F)C1 [Example 23, (S)-1-(2-(5-chloro-2-cyanopyridin-4-yl)-5,7-difluoro-4-oxo-1,4-dihydroquinolin-6-yl)-N,N-dimethylpiperidine-3-carboxamide]	76	> 100	< 10	< 10	> 100
CN1CCN(c2c(F)cc3[nH]c(-c4cc(C#N)ncc4Cl)cc(=O)c3c2F)CC1=O [Example 24, 5-chloro-4-(5,7-difluoro-6-(4-methyl-3-oxopiperazin-1-yl)-4-oxo-1,4-dihydroquinolin-2-yl)picolinonitrile]	87	> 100	10 to 100	10 to 100	> 100
CN(C)C(=O)[C@@H]1CCN(c2c(F)cc3[nH]c(-c4cc(C#N)ncc4Cl)cc(=O)c3c2F)C1 [Example 25, (R)-1-(2-(5-chloro-2-cyanopyridin-4-yl)-5,7-difluoro-4-oxo-1,4-dihydroquinolin-6-yl)-N,N-dimethylpyrrolidine-3-carboxamide]	86	> 100	< 10	< 10	> 100
CN(C)C(=O)[C@H]1CCN(c2c(F)cc3[nH]c(-c4cc(C#N)ncc4Cl)cc(=O)c3c2F)C1 [Example 26, (S)-1-(2-(5-chloro-2-cyanopyridin-4-yl)-5,7-difluoro-4-oxo-1,4-dihydroquinolin-6-yl)-N,N-dimethylpyrrolidine-3-carboxamide]	85	> 100	< 10	< 10	> 100
N#Cc1cnc(Cl)c(-c2cc(=O)c3c(F)cc(F)cc3[nH]2)c1 [Example 27, 6-chloro-5-(5,7-difluoro-4-oxo-1,4-dihydroquinolin-2-yl)nicotinonitrile]	70	> 100	10 to 100	10 to 100	> 100
C[S+]([O-])c1cnc(C#N)cc1-c1cc(=O)c2c(F)cc(F)cc2[nH]1 (stereo not shown) [Example 28, 4-(5,7-difluoro-4-oxo-1,4-dihydroquinolin-2-yl)-5-(methylsulfinyl)picolinonitrile]	79	> 100	10 to 100	10 to 100	> 100
CS(=O)(=O)c1cnc(C#N)cc1-c1cc(=O)c2ccc(Cl)cc2[nH]1 [Example 30, 4-(7-chloro-4-oxo-1,4-dihydroquinolin-2-yl)-5-(methylsulfonyl)picolinonitrile]	88	> 100	< 10	< 10	> 100
CS(=O)(=O)c1cnc(C#N)cc1-c1cc(=O)c2c(F)cc(Cl)cc2[nH]1 [Example 31, 4-(7-chloro-5-fluoro-4-oxo-1,4-dihydroquinolin-2-yl)-5-(methylsulfonyl)picolinonitrile]	86	> 100	< 10	< 10	> 100
CS(=O)(=O)c1ccc(C#N)nc1-c1cc(=O)c2c(F)cc(F)cc2[nH]1 [Example 32, 6-(5,7-difluoro-4-oxo-1,4-dihydroquinolin-2-yl)-5-(methylsulfonyl)picolinonitrile]	87	> 100	< 10	< 10	> 100
N#Cc1ncc(Cl)c(-c2cc(=O)c3c(F)cc(F)cc3[nH]2)n1 [Example 33, 5-chloro-4-(5,7-difluoro-4-oxo-1,4-dihydroquinolin-2-yl)pyrimidine-2-carbonitrile]	31	> 100	< 10	< 10	> 100
